For this experiment, the system named is BDF1 mice, colon carcinoma 38 sc, T/C %. Description: NCI In Vivo Anticancer Drug Screen. Data for tumor model Colon Carcinoma 38 (subcutaneous) in B6D2F1 (BDF1) mice. The note with it: endpoint: median tumor weight (est.), schedule: Q07DX002 (ip), higher = larger tumour. The method, boiled down: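 Mice with transplanted tumors are treated with compound or vehicle. Survival or tumor size is then measured in both groups. The ratio of treated to control gives the reported figure.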

The mark [1] stands for this setting: dose: 12.5 mg/kg/injection, vehicle: saline.
The mark [2] stands for this setting: dose: 50.0 mg/kg/injection, vehicle: saline.
[3] abbreviates: dose: 400.0 mg/kg/injection, vehicle: saline with Tween-80.
The mark [4] stands for this setting: dose: 400.0 mg/kg/injection, vehicle: saline.
[5] abbreviates: dose: 100.0 mg/kg/injection, vehicle: saline.
[6] abbreviates: dose: 12.5 mg/kg/injection, vehicle: saline with Tween-80.
Setting [7] is: dose: 25.0 mg/kg/injection, vehicle: saline with Tween-80.
The mark [8] stands for this setting: dose: 50.0 mg/kg/injection, vehicle: saline with Tween-80.

Molecules are shown by their SMILES. “And” between values parts separate entries of the source, which are not always exact repeats. Identical values can stand only once. Inconclusive results are not listed.

From PubChem BioAssay AID212 (DTP/NCI, 2004) come the findings set out here.

For `Nc1ncn(C2OC(CO)C(O)C2O)c(=O)n1` (stereo not drawn), the T/C was 69 % of control under setting [1]; 19 % of control and 31 % of control (dose: 32.0 mg/kg/injection, vehicle: saline); 80 % of control and 85 % of control and 97 % of control under setting [2]; 88 % of control (dose: 200.0 mg/kg/injection, vehicle: saline with Tween-80); 61 % of control under setting [3]; 62 % of control and 79 % of control and 82 % of control under setting [4]. The T/C was 95 % of control (dose: 800.0 mg/kg/injection, vehicle: saline with Tween-80); 27 % of control (dose: 800.0 mg/kg/injection, vehicle: saline); 55 % of control (dose: 1200.0 mg/kg/injection, vehicle: saline with Tween-80).
As to `NC(Cc1ccc(N(CCCl)Cc2ccccc2)cc1)C(=O)O` (stereo not drawn), the T/C (dose: 3.12 mg/kg/injection, vehicle: distilled water + Tween-80) is 69 % of control and 90 % of control; the T/C (dose: 6.25 mg/kg/injection, vehicle: distilled water + Tween-80) is 108 % of control; the T/C (dose: 12.5 mg/kg/injection, vehicle: distilled water + Tween-80) was 51 % of control and 70 % of control; the T/C (dose: 25.0 mg/kg/injection, vehicle: distilled water + Tween-80) is 109 % of control and 108 % of control; the T/C (dose: 50.0 mg/kg/injection, vehicle: distilled water + Tween-80) is 72 % of control and 92 % of control.
Regarding `OCC1(CO)COC2(CCCCC2)N1`, the T/C is 118 % of control and 102 % of control under setting [5]; 112 % of control and 122 % of control under setting [4].
Take `COc1cc2c(cc1O)N=C[C@@H]1CCC(O)N1C2=O` (mixture of isomers): the T/C was 72 % of control and 78 % of control (dose: 1.0 mg/kg/injection, vehicle: saline); 62 % of control (dose: 1.1 mg/kg/injection, vehicle: distilled water + Tween-80); 85 % of control (dose: 2.2 mg/kg/injection, vehicle: distilled water + Tween-80); 121 % of control and 105 % of control (dose: 4.0 mg/kg/injection, vehicle: saline); 76 % of control (dose: 4.5 mg/kg/injection, vehicle: distilled water + Tween-80); 81 % of control and 82 % of control (dose: 8.0 mg/kg/injection, vehicle: saline). Also, the T/C is, setting by setting: (dose: 9.0 mg/kg/injection, vehicle: distilled water + Tween-80) 66 % of control; (dose: 16.0 mg/kg/injection, vehicle: saline) 60 % of control.
Turning to `Nc1cc2c(c[n+](CCCCCCCC[n+]3cc4c5ccccc5c(N)cc4c4ccccc43)c3ccccc23)c2ccccc12`, the T/C is 108 % of control (dose: 7.5 mg/kg/injection, vehicle: water); 82 % of control (dose: 15.0 mg/kg/injection, vehicle: water); 94 % of control (dose: 30.0 mg/kg/injection, vehicle: water); 53 % of control (dose: 60.0 mg/kg/injection, vehicle: water).
For `CC(=O)NCCCCCCNC(C)=O`, the T/C reads like this: under setting [5], 77 % of control; (dose: 200.0 mg/kg/injection, vehicle: saline) 66 % of control and 81 % of control; under setting [4], 108 % of control; (dose: 1600.0 mg/kg/injection, vehicle: saline) 90 % of control and 91 % of control.
Consider `CN(C)CCN1C(=O)c2cccc3cc([N+](=O)[O-])cc(c23)C1=O`, for which the T/C by setting is: (dose: 1.56 mg/kg/injection, vehicle: saline with Tween-80) 93 % of control; (dose: 3.13 mg/kg/injection, vehicle: saline with Tween-80) 90 % of control; (dose: 6.25 mg/kg/injection, vehicle: saline with Tween-80) 70 % of control; under setting [6], 56 % of control.
`CCC(c1ccc(OC(=O)Cc2ccc(N(CCCl)CCCl)cc2)cc1)C(CC)c1ccc(OC(=O)Cc2ccc(N(CCCl)CCCl)cc2)cc1` (stereo not drawn): the T/C is, setting by setting: (dose: 9.38 mg/kg/injection, vehicle: saline with Tween-80) 120 % of control; (dose: 18.7 mg/kg/injection, vehicle: saline with Tween-80) 92 % of control; (dose: 37.5 mg/kg/injection, vehicle: saline with Tween-80) 33 % of control; (dose: 75.0 mg/kg/injection, vehicle: saline with Tween-80) 46 % of control; (dose: 300.0 mg/kg/injection, vehicle: saline with Tween-80) 51 % of control and 61 % of control; (dose: 600.0 mg/kg/injection, vehicle: saline with Tween-80) 51 % of control and 61 % of control.
Consider `COc1cccc2c1C(=N)c1c(O)c3c(c(O)c1C2=O)C[C@@](O)(C(C)=O)C[C@@H]3OC1CC(N)C(O)C(C)O1` (stereo partly drawn), for which the T/C (dose: 2.25 mg/kg/injection, vehicle: saline) was 71 % of control; the T/C (dose: 4.5 mg/kg/injection, vehicle: saline) is 115 % of control; the T/C (dose: 9.0 mg/kg/injection, vehicle: saline) was 99 % of control.
For the compound `CC(C)(C)c1ccc(CN2CCN(C(c3ccccc3)c3ccc(Cl)cc3)CC2)cc1` (stereo not drawn), the T/C is 92 % of control (dose: 8.0 mg/kg/injection, vehicle: Klucel (hydroxypropylcellulose) (HPC)); 34 % of control (dose: 16.0 mg/kg/injection, vehicle: Klucel (hydroxypropylcellulose) (HPC)); 82 % of control (dose: 32.0 mg/kg/injection, vehicle: Klucel (hydroxypropylcellulose) (HPC)); 89 % of control (dose: 64.0 mg/kg/injection, vehicle: Klucel (hydroxypropylcellulose) (HPC)); 87 % of control (dose: 256.0 mg/kg/injection, vehicle: Klucel (hydroxypropylcellulose) (HPC)).
`O=C(/C=C(\Cl)C(=O)NO)NO`: the T/C reads like this: under setting [1], 154 % of control; (dose: 12.5 mg/kg/injection, vehicle: suspension in saline) 82 % of control; (dose: 25.0 mg/kg/injection, vehicle: saline) 159 % of control; (dose: 25.0 mg/kg/injection, vehicle: suspension in saline) 101 % of control; under setting [2], 175 % of control; under setting [5], 119 % of control. The T/C (dose: 100.0 mg/kg/injection, vehicle: suspension in saline) is 94 % of control.
`CCC(CC)COC(=O)c1ccccc1C(=O)OCC(CC)CC`: the T/C runs as follows: under setting [7], 71 % of control; under setting [8], 92 % of control; under setting [3], 122 % of control.
Regarding `CN=C(N)N/N=C(\C)c1ccc2c(c1)Cc1ccccc1-2`, the T/C was 95 % of control and 98 % of control under setting [6]; 63 % of control and 85 % of control under setting [7]; 83 % of control and 86 % of control under setting [8]; 81 % of control and 93 % of control (dose: 100.0 mg/kg/injection, vehicle: saline with Tween-80).
Turning to `NC(=O)/C=C/c1c[nH]c2nccnc12`, the T/C reads like this: (dose: 6.25 mg/kg/injection, vehicle: water) 59 % of control; (dose: 12.5 mg/kg/injection, vehicle: water) 97 % of control; (dose: 25.0 mg/kg/injection, vehicle: water) 116 % of control; (dose: 100.0 mg/kg/injection, vehicle: water) 94 % of control.
